Experimental data reported in patent publication US12662490B2, “Heterocyclic compounds” (Hoffmann-La Roche Inc., priority 2019, dated 2026).

Target: T1, MAGL (Homo sapiens, UniProt Q99685)
T1 sequence (Q99685 1-303): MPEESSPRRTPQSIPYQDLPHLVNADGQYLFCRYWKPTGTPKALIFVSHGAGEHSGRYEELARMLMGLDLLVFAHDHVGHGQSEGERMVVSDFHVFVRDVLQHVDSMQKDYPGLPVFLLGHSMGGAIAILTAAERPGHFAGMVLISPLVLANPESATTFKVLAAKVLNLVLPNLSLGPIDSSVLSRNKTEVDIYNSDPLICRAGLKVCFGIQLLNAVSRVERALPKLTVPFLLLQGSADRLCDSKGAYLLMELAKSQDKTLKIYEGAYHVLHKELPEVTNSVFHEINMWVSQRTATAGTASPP
Assay: 2-AG assay (MAGL inhibitory activity; hydrolysis of 2-arachidonoylglycerol to arachidonic acid followed by mass spectrometry)
Type: biochemical
Settings: 15 min preincubation at RT, 8 μM 2-arachidonoylglycerol, 30 min at RT, RapidFire MS readout
Experimental: Compounds were profiled for MAGL inhibitory activity by determining the enzymatic activity by following the hydrolysis of the natural substrate 2-arachidonoylglycerol (2-AG) resulting in arachidonic acid, which can be followed by mass spectrometry. This assay is hereinafter abbreviated “2-AG assay”.
The 2-AG assay was carried out in 384 well assay plates (PP, Greiner Cat #784201) in a total volume of 20 μL. Compound dilutions were made in […] (VWR Chemicals 23500.297) in a polypropylene plate in 3-fold dilution steps to give a final concentration range in the assay from 12.5 μM to […]. 0.25 μL compound dilutions (100% DMSO) were added to 9 μL MAGL in assay buffer (50 mM TRIS (GIBCO, 15567-027), 1 mM EDTA (Fluka, 03690-100 mL), 0.010 (v/v) Tween. After shaking, the plate was incubated for 15 min at RT. To start the reaction, 10 μL 2-arachidonoylglycerol in assay buffer was added. The final concentrations in the assay was […] and 8 μM 2-arachidonoylglyerol. After shaking and 30 min incubation at RT, the reaction was quenched by the addition of 40 μL of ACN containing 4 μM of d8-arachidonic acid. The amount of arachidonic acid was traced by an online SPE system (Agilent Rapidfire) coupled to a triple quadrupole mass spectrometer (Agilent 6460). A C18 SPE cartridge (G9205A) was used in an ACN/water liquid setup. The mass spectrometer was operated in negative electrospray mode following the mass transitions 303.1→259.1 for arachidonic acid and 311.1→267.0 for d8-arachidonic acid. The activity of the compounds was calculated based on the ratio of intensities [arachidonic acid/d8-arachidonic acid].

| Structure (SMILES) | IC50 [nM] |
| --- | --- |
| COc1cccc(C(=O)N2CCN3CC(c4ccc5c(c4)CC5)OCC3C2)c1Cl (mixture of isomers) [Example 47, [3-(3-bicyclo[4.2.0]octa-1,3,5-trienyl)-3,4,6,7,9,9a-hexahydro-1H-pyrazino[2,1-c][1,4]oxazin-8-yl]-(2-chloro-3-methoxy-phenyl)methanone] | 134 |
| COc1cccc(C(=O)N2CCN3CC(c4ccc(C(F)F)cc4)OCC3C2)c1Cl (mixture of isomers) [Example 48, (2-chloro-3-methoxy-phenyl)-[3-[4-(difluoromethyl)phenyl]-3,4,6,7,9,9a-hexahydro-1H-pyrazino[2,1-c][1,4]oxazin-8-yl]methanone] | 146 |
| O=C(c1cccc(-c2c[nH]nc2F)c1Cl)N1CCN2CC(c3ccc(C(F)(F)F)nc3)OC[C@@H]2C1 (mixture of isomers) [Example 68, [(9aS)-3-[6-(trifluoromethyl)-3-pyridyl]-3,4,6,7,9,9a-hexahydro-1H-pyrazino[2,1-c][1,4]oxazin-8-yl]-[2-chloro-3-(3-fluoro-1H-pyrazol-4-yl)phenyl]methanone] | 15.8 |
| O=C(c1cccc(-c2c[nH]nc2F)c1Cl)N1CCN2CC(c3ccc(Br)nc3)OC[C@@H]2C1 (mixture of isomers) [Example 70, [2-chloro-3-(3-fluoro-1H-pyrazol-4-yl)phenyl]-[(9aS)-3-(6-bromo-3-pyridyl)-3,4,6,7,9,9a-hexahydro-1H-pyrazino[2,1-c][1,4]oxazin-8-yl]methanone] | 44.6 |
| O=C(c1cccc(-c2c[nH]nc2F)c1Cl)N1CCN2CC(c3ccc(OC(F)F)cc3)OC[C@@H]2C1 (mixture of isomers) [Example 73, (2-chloro-3-(3-fluoro-1H-pyrazol-4-yl)phenyl)((9aS)-3-(4-(difluoromethoxy)phenyl)hexahydropyrazino[2,1-c][1,4]oxazin-8(1H)-yl)methanone] | 53.3 |
| COc1cccc(C(=O)N2CCN3C[C@@H](c4ccc(F)c(Cl)c4)OC[C@@H]3C2)c1Br (racemic) [Example 2, (2-bromo-3-methoxy-phenyl)-[rac-(3R,9aS)-3-(3-chloro-4-fluoro-phenyl)-3,4,6,7,9,9a-hexahydro-1H-pyrazino[2,1-c][1,4]oxazin-8-yl]methanone] | 14.6 |
| C/C=C/c1cc([C@@H]2CN3CCN(C(=O)c4cccc(OC)c4Cl)C[C@H]3CO2)ccc1F (racemic) [Example 10, (2-chloro-3-methoxy-phenyl)-[(3R,9aS)-3-[4-fluoro-3-[rac-(E)-prop-1-enyl]phenyl]-3,4,6,7,9,9a-hexahydro-1H-pyrazino[2,1-c][1,4]oxazin-8-yl]methanone] | 179 |
| COc1cccc(C(=O)N2CCN3C[C@H](c4ccc(Br)cn4)OC[C@H]3C2)c1Cl (racemic) [Example 53, (2-chloro-3-methoxy-phenyl)-[rac-(3R,9aR)-3-(5-bromo-2-pyridyl)-3,4,6,7,9,9a-hexahydro-1H-pyrazino[2,1-c][1,4]oxazin-8-yl]methanone] | 76 |
| COc1cccc(C(=O)N2CCN3C[C@@H](c4ccc(Br)cn4)OC[C@H]3C2)c1Cl (racemic) [Example 54, (2-chloro-3-methoxy-phenyl)-[rac-(3S,9aR)-3-(5-bromo-2-pyridyl)-3,4,6,7,9,9a-hexahydro-1H-pyrazino[2,1-c][1,4]oxazin-8-yl]methanone] | 975 |
| COc1cccc(C(=O)N2CCN3C[C@H](c4cncc(Cl)c4)OC[C@@H]3C2)c1Cl (racemic) [Example 58, (2-chloro-3-methoxy-phenyl)-[rac-(3S,9aS)-3-(5-chloro-3-pyridyl)-3,4,6,7,9,9a-hexahydro-1H-pyrazino[2,1-c][1,4]oxazin-8-yl]methanone] | 2220 |
| COc1cccc(C(=O)N2CCN3C[C@@H](c4cncc(Cl)c4)OC[C@@H]3C2)c1Cl (racemic) [Example 59, (2-chloro-3-methoxy-phenyl)-[rac-(3R,9aS)-3-(5-chloro-3-pyridyl)-3,4,6,7,9,9a-hexahydro-1H-pyrazino[2,1-c][1,4]oxazin-8-yl]methanone] | 544 |
| COc1cccc(C(=O)N2CCN3C[C@@H](c4sc(C)nc4C)OC[C@@H]3C2)c1Cl (single isomer, unassigned) [Example 51] | 4980 |
| COc1cccc(C(=O)N2CCN3C[C@H](c4sc(C)nc4C)OC[C@H]3C2)c1Cl (single isomer, unassigned) [Example 52] | 1380 |
| COc1cccc(C(=O)N2CCN3C[C@@](O)(c4nc5ccccc5[nH]4)OC[C@@H]3C2)c1Cl (single isomer, unassigned) [Example 60] | 951 |
| COc1cccc(C(=O)N2CCN3C[C@](O)(c4nc5ccccc5[nH]4)OC[C@H]3C2)c1Cl (single isomer, unassigned) [Example 61] | 294 |
| COc1cccc(C(=O)N2CCN3C[C@@H](c4cccc(C(F)(F)F)n4)OC[C@@H]3C2)c1Cl (single isomer, unassigned) [Example 63] | 1310 |
| COc1cccc(C(=O)N2CCN3C[C@H](c4cc(Cl)c(Cl)cn4)OC[C@H]3C2)c1Cl (single isomer, unassigned) [Example 66] | 531 |
| COc1cccc(C(=O)N2CCN3C[C@@H](c4cc(Cl)c(Cl)cn4)OC[C@@H]3C2)c1Cl (single isomer, unassigned) [Example 67] | 8.4 |
| COc1cccc(C(=O)N2CCN3CC(c4ccc(F)c(Cl)c4)SC[C@@H]3C2)c1Cl (single isomer, unassigned) [Example 161] | 3.1 |
| COc1cccc(C(=O)N2CCN3CC(c4ccc(F)c(Cl)c4)SC[C@@H]3C2)c1Cl (single isomer, unassigned) [Example 162] | 21.6 |
| COc1cccc(C(=O)N2CCN3C[C@@H](c4ccc(F)c(Cl)c4)OC[C@]3(C)C2)c1Cl (stereo in doubt) [Example 32, (2-chloro-3-methoxy-phenyl)-[(rel-3R,9aS)-3-(3-chloro-4-fluoro-phenyl)-9a-methyl-1,3,4,6,7,9-hexahydropyrazino[2,1-c][1,4]oxazin-8-yl]methanone] | 335 |
| COc1cccc(C(=O)N2CCN3C[C@H](c4ccc(F)c(Cl)c4)OC[C@@]3(C)C2)c1Cl (stereo in doubt) [Example 33, (2-chloro-3-methoxy-phenyl)-[(rel-3S,9aR)-3-(3-chloro-4-fluoro-phenyl)-9a-methyl-1,3,4,6,7,9-hexahydropyrazino[2,1-c][1,4]oxazin-8-yl]methanone] | 1910 |
| COc1cccc(C(=O)N2CCN3C[C@@H](c4ccc(F)c(Cl)c4)OC[C@@H]3C2)c1Cl [Example 1, [(3R,9aS)-3-(3-chloro-4-fluoro-phenyl)-3,4,6,7,9,9a-hexahydro-1H-pyrazino[2,1-c][1,4]oxazin-8-yl]-(2-chloro-3-methoxy-phenyl)methanone] | 18.3 |
| O=C(c1cnc2sccc2c1Cl)N1CCN2C[C@@H](c3ccc(F)c(Cl)c3)OC[C@@H]2C1 [Example 5, (4-chlorothieno[2,3-b]pyridin-5-yl)-[(3R,9aS)-3-(3-chloro-4-fluoro-phenyl)-3,4,6,7,9,9a-hexahydro-1H-pyrazino[2,1-c][1,4]oxazin-8-yl]methanone] | 28.2 |
| COc1cccc(C(=O)N2CCN3C[C@@H](c4ccc(F)c(Br)c4)OC[C@@H]3C2)c1Cl [Example 6, [(3R,9aS)-3-(3-bromo-4-fluoro-phenyl)-3,4,6,7,9,9a-hexahydro-1H-pyrazino[2,1-c][1,4]oxazin-8-yl]-(2-chloro-3-methoxy-phenyl)methanone] | 10.9 |
| O=C(c1cnc2[nH]ncc2c1Cl)N1CCN2C[C@@H](c3ccc(F)c(Cl)c3)OC[C@@H]2C1 [Example 8, [(3R,9aS)-3-(3-chloro-4-fluoro-phenyl)-3,4,6,7,9,9a-hexahydro-1H-pyrazino[2,1-c][1,4]oxazin-8-yl]-(4-chloro-1H-pyrazolo[3,4-b]pyridin-5-yl)methanone] | 705 |
| COc1cccc(C(=O)N2CCN3C[C@@H](c4ccc(F)c(Cl)c4)OC[C@@H]3C2)c1F [Example 9, [(3R,9aS)-3-(3-chloro-4-fluoro-phenyl)-3,4,6,7,9,9a-hexahydro-1H-pyrazino[2,1-c][1,4]oxazin-8-yl]-(2-fluoro-3-methoxy-phenyl)methanone] | 85.6 |
| COc1cccc(C(=O)N2CCN3C[C@@H](c4ccc(F)c(-c5ccccc5)c4)OC[C@@H]3C2)c1Cl [Example 11, [(3R,9aS)-3-(4-fluoro-3-phenyl-phenyl)-3,4,6,7,9,9a-hexahydro-1H-pyrazino[2,1-c][1,4]oxazin-8-yl]-(2-chloro-3-methoxy-phenyl)methanone] | 259 |
